Results as given in US10544154B2, “Opioid receptor antagonist prodrugs” (Nirsum Laboratories, Inc., priority 2017, dated 2020).

What was measured:
[1] = Plasma stability, rat plasma (HPLC-MS); type: in vitro ADME; conditions: 10 μM, 37° C.
Method: Plasma stability determination of the test compounds in rat, dog, cynomolgus monkey and human plasma is performed using HPLC-MS. For rat, incubations are carried out in 96-well polypropylene plates in 5 aliquots of 70 μL each (one for each time point). […] Five time points are analyzed (0, 15, 120, 480 and 1440 min). For dog, monkey and human, test compounds (2 μM, final solvent concentration 1%) were also incubated at 37° C. and analyzed at five time points (0, 10, 30, 60 and 120 min). All incubations are performed in duplicates. The samples are analyzed by HPLC-MS. The percentage of parent compound remaining after incubation in plasma is determined.

[2] = Polymorph screening of solid state drug substances; type: physicochemical; conditions: for Dry method and appearance: after stirring at 50 °C for 72 hours; for XRPD results (Dried): dried solid

Compound | % remaining at time point in minutes, 0 min [1] [%] | % remaining at time point in minutes, 15 min [1] [%] | % remaining at time point in minutes, 120 min [1] [%] | % remaining at time point in minutes, 480 min [1] [%] | % remaining at time point in minutes, 1440 min [1] [%] | other results
CCCCCCCCCCOC(=O)Oc1ccc2c3c1O[C@H]1C(=O)CC[C@@]4(O)C(C2)N(CC2CC2)CC[C@]314 [Compound 10, (4aS,7aR,12bS)-3-(cyclopropylmethyl)-4a-hydroxy-7-oxo-2,3,4,4a,5,6,7,7a-octahydro-1H-4,12-methanobenzofuro[3,2-e]isoquinolin-9-yl decyl carbonate] | 100 | 0 | 0 | 0 | 0 | Dry method and appearance ([2]; Acetone): Evaporation/White wax; XRPD results (Dried) ([2]; Acetone): Pattern A; Dry method and appearance ([2]; EtOAc): Evaporation/White wax; XRPD results (Dried) ([2]; EtOAc): Pattern A; Dry method and appearance ([2]; Heptane): Centrifugation/White wax; XRPD results (Dried) ([2]; Heptane): Pattern A; Dry method and appearance ([2]; Isopropanol): Evaporation/White wax; XRPD results (Dried) ([2]; Isopropanol): Pattern A; Dry method and appearance ([2]; MTBE): Evaporation/White wax; XRPD results (Dried) ([2]; MTBE): Pattern A
CCCCCCCCCCCCCC(=O)Oc1ccc2c3c1O[C@H]1C(=O)CC[C@@]4(O)C(C2)N(CC2CC2)CC[C@]314 [Compound 57, (4aS,7aR,12bS)-3-(cyclopropylmethyl)-4a-hydroxy-7-oxo-2,3,4,4a,5,6,7,7a-octahydro-1H-4,12-methanobenzofuro[3,2-e]isoquinolin-9-yl tetradecanoate] | 100 | – | 3.2 | 1.2 | 0 | –
CCCCCCCCOC(=O)Oc1ccc2c3c1O[C@H]1C(=O)CC[C@@]4(O)C(C2)N(CC2CC2)CC[C@]314 [Compound 23, (4aS,7aR,12bS)-3-(cyclopropylmethyl)-4a-hydroxy-7-oxo-2,3,4,4a,5,6,7,7a-octahydro-1H-4,12-methanobenzofuro[3,2-e]isoquinolin-9-yl octyl carbonate] | 100 | 0 | 0 | 0 | 0 | –
C=C1CC[C@@]2(O)C3Cc4ccc(OC(=O)OCCCCCCCCCC)c5c4[C@@]2(CCN3CC2CC2)[C@H]1O5 [Compound 18, (4aS,7aS,12bS)-3-(cyclopropylmethyl)-4a-hydroxy-7-methylene-2,3,4,4a,5,6,7,7a-octahydro-1H-4,12-methanobenzofuro[3,2-e]isoquinolin-9-yl decyl carbonate] | 100 | 0.6 | 0.3 | 0.1 | 0 | –
C=C1CC[C@@]2(O)C3Cc4ccc(OC(=O)CCCCCCCCCCCCCCCCCCCCC)c5c4[C@@]2(CCN3CC2CC2)[C@H]1O5 [Compound 14, (4aS,7aS,12bS)-3-(cyclopropylmethyl)-4a-hydroxy-7-methylene-2,3,4,4a,5,6,7,7a-octahydro-1H-4,12-methanobenzofuro[3,2-e]isoquinolin-9-yl docosanoate] | 100 | 94 | – | – | 120 | Dry method and appearance ([2]; Acetone): Evaporation/white powder; XRPD results (Dried) ([2]; Acetone): Pattern A; Visual observation RT ([2]; Acetone, target conc. 100 mg/ml, RT): Slurry; Dry method and appearance ([2]; EtOAc): Evaporation/white powder; XRPD results (Dried) ([2]; EtOAc): Pattern A; Dry method and appearance ([2]; Heptane): Centrifugation/white powder; XRPD results (Dried) ([2]; Heptane): Pattern B; Dry method and appearance ([2]; Isopropanol): Evaporation/white powder; XRPD results (Dried) ([2]; Isopropanol): Pattern A; Dry method and appearance ([2]; MTBE): Evaporation/white powder; XRPD results (Dried) ([2]; MTBE): Pattern A
C=C1CC[C@@]2(O)C3Cc4ccc(OC(=O)OCCCCCCCC)c5c4[C@@]2(CCN3CC2CC2)[C@H]1O5 [Compound 17, (4aS,7aS,12bS)-3-(cyclopropylmethyl)-4a-hydroxy-7-methylene-2,3,4,4a,5,6,7,7a-octahydro-1H-4,12-methanobenzofuro[3,2-e]isoquinolin-9-yl octyl carbonate] | 100 | 0 | 0 | 0 | 0 | –
CCCCCCCCCCCCCCCCCC(=O)Oc1ccc2c3c1O[C@H]1C(=O)CC[C@@]4(O)C(C2)N(CC2CC2)CC[C@]314 [Compound 54, (4aS,7aR,12bS)-3-(cyclopropylmethyl)-4a-hydroxy-7-oxo-2,3,4,4a,5,6,7,7a-octahydro-1H-4,12-methanobenzofuro[3,2-e]isoquinolin-9-yl stearate] | 100 | – | – | – | – | –
C=C1CC[C@@]2(O)C3Cc4ccc(OC(=O)CCCCCCC/C=C\CCCCCCCC)c5c4[C@@]2(CCN3CC2CC2)[C@H]1O5 [Compound 36, (4aS,7aS,12bS)-3-(cyclopropylmethyl)-4a-hydroxy-7-methylene-2,3,4,4a,5,6,7,7a-octahydro-1H-4,12-methanobenzofuro[3,2-e]isoquinolin-9-yl oleate] | 100 | – | – | – | – | –
CCCCCCCCCCCCCCCCCCCCCC(=O)Oc1ccc2c3c1O[C@H]1C(=O)CC[C@@]4(O)C(C2)N(CC2CC2)CC[C@]314 [Compound 51, (4aS,7aR,12bS)-3-(cyclopropylmethyl)-4a-hydroxy-7-oxo-2,3,4,4a,5,6,7,7a-octahydro-1H-4,12-methanobenzofuro[3,2-e]isoquinolin-9-yl docosanoate] | 100 | – | – | – | – | –
Enalapril maleate salt [reference compound] | 100 | 44 | 2.9 | 8.2 | 4.8 | –
CCCCCCCCCCCCCCC(=O)Oc1ccc2c3c1O[C@H]1C(=O)CC[C@@]4(O)C(C2)N(CC2CC2)CC[C@]314 [Compound 58, (4aS,7aR,12bS)-3-(cyclopropylmethyl)-4a-hydroxy-7-oxo-2,3,4,4a,5,6,7,7a-octahydro-1H-4,12-methanobenzofuro[3,2-e]isoquinolin-9-yl pentadecanoate] | 100 | 37 | 20 | 2.9 | 1.8 | –
CCCCCCCCCCCCCCCCCCCC(=O)Oc1ccc2c3c1O[C@H]1C(=O)CC[C@@]4(O)C(C2)N(CC2CC2)CC[C@]314 [Compound 50, (4aS,7aR,12bS)-3-(cyclopropylmethyl)-4a-hydroxy-7-oxo-2,3,4,4a,5,6,7,7a-octahydro-1H-4,12-methanobenzofuro[3,2-e]isoquinolin-9-yl icosanoate] | 100 | – | – | – | – | –
C=C1CC[C@@]2(O)C3Cc4ccc(OC(=O)OCCCCCCCCCCCCC)c5c4[C@@]2(CCN3CC2CC2)[C@H]1O5 [Compound 30, (4aS,7aS,12bS)-3-(cyclopropylmethyl)-4a-hydroxy-7-methylene-2,3,4,4a,5,6,7,7a-octahydro-1H-4,12-methanobenzofuro[3,2-e]isoquinolin-9-yl tridecyl carbonate] | 100 | – | – | – | – | –
C=C1CC[C@@]2(O)C3Cc4ccc(OCOC(=O)OCCCCCCCCCCCCCC)c5c4[C@@]2(CCN3CC2CC2)[C@H]1O5 [Compound 25, (((4aS,7aS,12bS)-3-(cyclopropylmethyl)-4a-hydroxy-7-methylene-2,3,4,4a,5,6,7,7a-octahydro-1H-4,12-methanobenzofuro[3,2-e]isoquinolin-9-yl)oxy)methyl tetradecyl carbonate] | 100 | – | – | – | – | –
